{"source": "a melting point compilation (Tetko et al.; mined from patent text by program, amines drawn as free bases though some values may be those of a salt)"}
{"units": {"melting point": "°C"}}
{"smiles": "CN1CC2c3cccn3Cc3ccc(Cl)cc3N2C(=O)C1=O", "note": "(configuration not stated)", "melting point": 203}
{"smiles": "COc1ccc(-c2cc(C(=O)NCCCCCCc3ccccc3)cc(-c3cccc(C(F)(F)F)c3)c2OCCO)cc1", "melting point": "153 to 159"}
{"smiles": "Nc1ncnc2c1ncn2Cc1oc2ccc(Br)cc2c(=O)c1-c1ccc(F)cc1", "melting point": "238 to 242"}
{"smiles": "COc1cc2c(cc1OC)C(c1ccccc1)N(C(=O)NCCN(C)C)CC2", "note": "(configuration not stated)", "melting point": 60}
{"smiles": "CC(C(=O)O)c1ccc(C(=O)c2cc3ccsc3s2)cc1", "note": "(configuration not stated)", "melting point": 150}
{"smiles": "Cc1c(N2C(=O)[C@H]3[C@@H](O)CCN3C2=O)ccc(C#N)c1Cl", "melting point": "237 to 238"}
{"smiles": "NC(=O)N1CC(OCc2cccc(Cl)c2)C1", "melting point": "163 to 166"}
{"smiles": "COC(=O)C(C)(C)CCCOc1cc(C)c(NS(=O)(=O)c2ccc(OC)cc2)cc1C", "melting point": "90 to 92"}
{"smiles": "Cc1cc(=O)c(OCC(=O)O)cn1C", "melting point": "240 to 242"}
{"smiles": "O=C(O)C(CBr)(CBr)CBr", "melting point": "83 to 86"}
{"smiles": "CC(C)(C)OC(=O)CN(C(=O)CNC(=O)Nc1cnc2ccccc2c1)c1ccccc1", "melting point": 191}
{"smiles": "CCCc1ccc(Cc2c(C(F)(F)F)[nH][nH]c2=O)cc1", "melting point": "114 to 116"}
{"smiles": "C[C@H](CSC(=O)c1ccccc1)C(=O)N1CSC[C@H]1C(=O)OCOC(=O)C(C)(C)C", "melting point": "69 to 69.5"}
{"smiles": "COc1c(Cl)ccnc1C(=O)O", "melting point": "116 to 117"}
{"smiles": "CC(Cl)c1ccc(-c2ccc(Cl)cc2)cc1", "note": "(configuration not stated)", "melting point": "100 to 102"}
{"smiles": "COc1ccc(-c2cc(-c3ccccc3)c(-c3ccccc3)s2)cc1F", "melting point": "118 to 122"}
{"smiles": "CC1(CN2CCN(c3cccc4c3OCCO4)CC2)N=C(c2ccccc2)NC1=O", "note": "(configuration not stated)", "melting point": "80 to 85"}
{"smiles": "ON=C(c1ccccc1)c1ccc(OCCCCOc2ccc(C(=NO)c3ccccc3)cc2)cc1", "melting point": "154 to 156"}
{"smiles": "CNC(=O)n1cc(C(N)=O)nc1C(C)(C)C", "melting point": "145 to 147"}
{"smiles": "COC(=O)C(CC1CCCC1)c1ccc(S(C)(=O)=O)c(F)c1", "note": "(configuration not stated)", "melting point": "66 to 68"}
{"smiles": "c1ccc(CC2CNCCNCCNCCNCCN2)cc1", "note": "(configuration not stated)", "melting point": "98 to 100"}
{"smiles": "N#Cc1cc(C(=O)c2ccncc2)ccc1O", "melting point": "310 to 311"}
{"smiles": "COc1ccc(-c2[nH]nc3c2C(=O)c2c(NC=O)cccc2-3)cc1", "melting point": 280}
{"smiles": "COc1cc(OC)c2ncn(/C=C/C(=O)O)c(=O)c2c1", "melting point": "305 to 307"}
{"smiles": "CC1(C)C=C(N2Cc3ccccc3C2=O)c2cc(S(=O)(=O)C(F)(F)C(F)(F)C(F)(F)F)ccc2O1", "melting point": "164 to 166"}
{"smiles": "O=C(c1cccnc1)c1cccc([N+](=O)[O-])c1", "melting point": "73 to 76"}
{"smiles": "CN1CCN2C(=O)c3ccccc3C12c1ccccc1", "note": "(configuration not stated)", "melting point": "120 to 122"}
{"smiles": "O=C(Nc1ccc(-n2nc(C(F)(F)F)cc2Br)cc1)c1ccncc1F", "melting point": "143 to 144"}
{"smiles": "Cc1nc(NC(=O)c2ccccc2OC(F)(F)F)sc1C(=O)NCc1ccccc1", "melting point": "140 to 141"}
{"smiles": "C=CCOC(=O)COC(=O)c1c(Br)c(Br)c(C(=O)OCC(=O)OCC=C)c(Br)c1Br", "melting point": "146 to 148"}
{"smiles": "COc1cc(-c2ccccc2F)c(Cl)cc1C(=O)N1Cc2ccc(C(=O)O)n2Cc2ccccc21", "melting point": "192 to 194"}
{"smiles": "Cn1nnc(-c2cccc(Oc3cccc(C(F)(F)F)c3)n2)n1", "melting point": "58 to 61"}
{"smiles": "C#CCOc1ccccc1OS(=O)(=O)NC(=O)Nc1nc(OC)cc(OC)n1", "melting point": "125 to 126"}
{"smiles": "Cc1cccc(C2SCCCS2)n1", "melting point": 74}
{"smiles": "COc1cn(-c2ccc(I)cc2F)nc(-c2ccnn2-c2ccccc2)c1=O", "melting point": "194 to 196"}
{"smiles": "CN(CCCNC(=S)c1cc(C(C)(C)C)c(O)c(C(C)(C)C)c1)CCOc1ccc2c(c1)OCO2", "melting point": "114 to 115"}
{"smiles": "O=C1CCCC1n1nc(-c2c(-c3ccccc3)nn3ccccc23)ccc1=O", "note": "(configuration not stated)", "melting point": "167 to 168"}
{"smiles": "Cc1ccc(COC(C)CN(O)C(N)=O)s1", "note": "(configuration not stated)", "melting point": "84 to 85"}
{"smiles": "NC1=NN(c2nc3ccccc3s2)CC1", "melting point": "232 to 235"}
{"smiles": "CCOC(=O)c1c(C(F)(F)F)nc(OC)c(C#N)c1OC", "melting point": "32 to 34"}
{"smiles": "CCC(=O)c1c(CC)n(Cc2ccccc2Cl)c2cc(C#N)ccc12", "melting point": "115 to 118"}
{"smiles": "Cc1ccnc(Sc2nc(-c3ccc(Cl)cc3)c(CCC(=O)O)o2)n1", "melting point": "174 to 175"}
{"smiles": "COc1ccc(C=O)c(Oc2ccc(Cl)cc2[N+](=O)[O-])c1", "melting point": "130 to 131"}
{"smiles": "O=C1Nc2cccnc2Nc2ncccc21", "melting point": "> 340"}
{"smiles": "CCCCc1cc2cc(OCC(=O)OCC)c(Cl)c(Cl)c2s1", "melting point": "72 to 73"}
{"smiles": "CC(C)(C)OC(=O)N1CC2C(CCC3(C)C(C(=O)O)CCC23)C2(C)CCC(=O)C=C12", "note": "(configuration not stated)", "melting point": "215 to 216"}
{"smiles": "O=C(NC1CN2CCC1CC2)c1cccc2oc(-c3ccccc3)nc12", "note": "(configuration not stated)", "melting point": "77 to 80"}
{"smiles": "CCOC(=O)c1ncc2[nH]c3ccc(C(C)(C)C)cc3c2c1C", "melting point": "201 to 203"}
{"smiles": "CCCCC(=O)NCc1ccc(I)cc1", "melting point": "80 to 81"}
{"smiles": "CC1(C)CCC(C)(C)c2cc(CO)ccc21", "melting point": "74 to 75"}
{"smiles": "CC(=O)Nc1ccccc1CS(=O)c1nccn1-c1ccncc1", "note": "(configuration not stated)", "melting point": "147 to 149"}
{"smiles": "CC(=O)c1ccc2c(c1)C(c1ccccn1)CC(C)(C)O2", "note": "(configuration not stated)", "melting point": "102 to 105"}
{"smiles": "COc1ccccc1-c1ccc2ccc(NC(=O)c3cccc(Br)c3)nc2n1", "melting point": 110}
{"smiles": "CCc1ncc2n1N=C(c1ccc([N+](=O)[O-])cc1)c1cc3c(cc1C2)OCO3", "melting point": "243 to 245"}
{"smiles": "CC(C)(C)NC(=O)[C@@H]1C[C@H](Br)CN1C(=O)OC(C)(C)C", "melting point": "159 to 160"}
{"smiles": "CN(CC1=NC(=S)N=N1)C(COCc1cc(C(F)(F)F)cc(C(F)(F)F)c1)C(c1ccccc1)c1ccccc1", "note": "(configuration not stated)", "melting point": "192 to 194"}
{"smiles": "CCCN1NC(c2ccccc2)C2=C1C(=Cc1ccccc1)CSC2", "note": "(configuration not stated)", "melting point": "106 to 118"}
{"smiles": "Cc1c(CC(=O)O)cccc1C(=O)c1ccc(Cl)cc1", "melting point": 152}
{"smiles": "CC(C)=C1C(=O)N(c2ccc(Cc3ccc(N)cc3)cc2)C(=O)/C1=C(\\C)c1cc(-c2ccccc2)sc1C", "melting point": "82 to 94"}
{"smiles": "O=C(O)CN1C(=O)CN(Cc2ccccc2)C1=O", "melting point": "125 to 127"}
{"smiles": "CC(=O)N1CCN(C(=S)Nc2cc3sc(C(C)(C)C)nc3cc2N2CCC(C)CC2)CC1", "melting point": "187 to 190"}
{"smiles": "Cc1cc(N)nc(CCc2nc3cc(-c4ccc(C(F)(F)F)cc4)cnc3[nH]2)c1", "melting point": 170}
{"smiles": "CCOC(=O)c1cc(Cl)nc(Cl)n1", "melting point": 31.6}
{"smiles": "Fc1ccc2[nH]cc(Cc3ccncc3)c2c1", "melting point": "141 to 142"}
{"smiles": "Clc1ncccc1OCC#CI", "melting point": "164 to 165"}
{"smiles": "CCOC(=O)c1cc(NCc2ccccc2)c(Nc2ccc(Cl)cc2)c(S(N)(=O)=O)c1", "melting point": 187}
{"smiles": "Oc1ncc(-c2ccccc2Cl)cn1", "melting point": "232 to 233"}
{"smiles": "COc1cc(C=C2C(=O)CCc3cc(OC)c(OC)cc32)c([N+](=O)[O-])cc1OC", "melting point": "65 to 66"}
{"smiles": "COC(=O)c1cccc(C=Cc2cccc(C(=O)OC)c2)c1", "melting point": "105 to 107"}
{"smiles": "O=c1ccc(S(=O)(=O)c2c[nH]c3ccccc23)n[nH]1", "melting point": "248 to 250"}
{"smiles": "O=C(Nc1cc(C(F)(F)F)ccc1N1CCOCC1)c1ccncc1", "melting point": "172 to 173"}
{"smiles": "CC1CCCC(C)N1C(=O)C=Cc1ccc(C(F)(F)F)cc1", "note": "(configuration not stated)", "melting point": "89 to 91"}
{"smiles": "CCc1nnc(-c2ccc(C)c(-c3ccc(F)cc3)n2)nc1CC", "melting point": 108}
{"smiles": "N#Cc1ccc2oc(CCc3cc4cc(C#N)ccc4o3)cc2c1", "melting point": "243 to 244"}
{"smiles": "CC1(C(=O)c2c[nH]c3ncc(-c4cccc(N5CCN(C(=O)CC#N)CC5)c4)nc23)CCCCC1", "melting point": "214 to 216"}
{"smiles": "CC(C)(C)Nc1nc(Cl)c(C#N)cc1F", "melting point": "84 to 85"}
{"smiles": "CCOc1cc2cc3ncc(C#N)c(Nc4cc(OC)c(Cl)cc4C)c3cc2cc1OCCN1CCOCC1", "melting point": "195 to 196"}
{"smiles": "Cc1cc2c(c(C)c1NCc1ccccc1)C(c1ccc(C(C)C)cc1)CO2", "note": "(configuration not stated)", "melting point": "82 to 83"}
{"smiles": "CCc1nc2c(c(C)c(C)n3nnnc23)n1CCOCCN1CCCC1=O", "melting point": "141 to 143"}
{"smiles": "O=C(O)C1Cc2cc3c(-c4ccc(F)cc4)noc3c(Cl)c2O1", "note": "(configuration not stated)", "melting point": "225 to 226"}
{"smiles": "OC(c1ccccc1Cl)C(c1ccccc1Cl)n1ccnc1", "note": "(configuration not stated)", "melting point": "62 to 68"}
{"smiles": "CCn1cc(C(=O)O)c(=O)c2cc(F)c(N3CCNC(c4c[nH]c5ccccc45)C3)cc21", "note": "(configuration not stated)", "melting point": 230}
{"smiles": "Nc1ccc(C(=O)N(CCN2CCC(C(=O)c3ccc(F)cc3)CC2)c2ccccc2)cc1", "melting point": "156 to 157"}
{"smiles": "Cn1c(S(=O)(=O)CCCl)nnc1S(=O)(=O)CCCl", "melting point": 156}
{"smiles": "COc1cc(CCC(=O)c2c(OC)cc(OC)c(CCC(C)C)c2OCC(=O)O)ccc1O", "melting point": "87 to 88"}
{"smiles": "O=C(CCCI)c1ccc(F)cc1O", "melting point": 41.4}
{"smiles": "O=C(CCN1C(=O)c2ccccc2C1=O)c1ccc(Cl)cc1C(=O)c1ccccc1", "melting point": "163 to 164"}
{"smiles": "CCC1CC2(C)C(O)CCC2C2CCc3cccc(O)c3C12", "note": "(configuration not stated)", "melting point": "155 to 157"}
{"smiles": "COc1ccc(-c2cc3cc(Br)ccc3o2)cc1", "melting point": 189}
{"smiles": "CC(C)(O)C(=O)c1ccc(OCC(N)=O)cc1", "melting point": 139}
{"smiles": "CC[C@@]1(C=O)CCCN(CCc2c[nH]c3ccc(OC)cc23)C1=O", "melting point": 108}
{"smiles": "CNC(=O)[C@@H](C[C@H](O)[C@H](CC1CCCCC1)NC(=O)OC(C)(C)C)C(C)(C)O", "melting point": "174 to 175"}
{"smiles": "O=C(CCC1CCC(=O)N1)Nc1ccncc1", "note": "(configuration not stated)", "melting point": "187 to 188"}
{"smiles": "CN(C)C=NC(=S)NC1CCN(C(=O)OC(C)(C)C)CC1", "melting point": 170}
{"smiles": "CCOC(=O)c1cn2c(cc(Cl)c3ccc(Cl)cc32)n1", "melting point": "229 to 230"}
{"smiles": "CCn1ncc2c1ncc1c(=O)[nH]c3cc(C)nn3c12", "melting point": "285 to 286"}
{"smiles": "C=CCN1C(C)(C)CC(Oc2nc(OC3CC(C)(C)N(CC=C)C(C)(C)C3)nc(OC3CC(C)(C)N(CC=C)C(C)(C)C3)n2)CC1(C)C", "melting point": "218 to 219"}
{"smiles": "O=c1ncc(Cl)cn1CC(O)CO", "note": "(configuration not stated)", "melting point": "136 to 138"}
{"smiles": "Cc1ccc(S(=O)(=O)N2CCCC2c2nnnn2[C@@](C)(Cc2ccc([N+](=O)[O-])cc2)C(=O)O)cc1", "note": "(some centres not stated)", "melting point": "150 to 160"}
{"smiles": "CCOP(=O)(O)Cc1ccc(NC(=O)CCc2cnoc2-c2ccccc2)cc1", "melting point": "80 to 82"}
{"smiles": "Cc1nn(-c2cc([N+](=O)[O-])c(Cl)cc2F)c(Cl)c1Br", "melting point": "135 to 137"}
{"smiles": "Cc1cc(-n2cccn2)c2cccc(OCc3c(Cl)ccc(S(=O)(=O)N4CCC[C@H]4CO)c3Cl)c2n1", "melting point": 65}
